In US7026134B2 (priority 2001, dated 2006):
In brackets after ≈: the same amount, converted by molar mass. Like-named read-outs stand apart in the source and are kept apart here.

Tests used:
[1] = test system: IgG fraction of the antiserum raised to immunogen A (hapten A-BSA); format: binding, sheep; details: for IC50: standard concentration which produces 50% B/B0; for IC50, OP: concentration of test opiate that causes 50% displacement of signal, Table 3, Example 13 (a)
Description: Aqueous solutions of the immunogens prepared in Examples 7 and 8 were formulated with Freund's Complete Adjuvant (FCA) to form emulsions consisting of 4 mg/ml immunogen A and 2 mg/ml immunogen B in 50% (v/v) FCA. Three sheep were immunized with each emulsion (1° immunizations), 0.25 ml being subcutaneously injected at each of four sites in the flank of each animal. The next immunizations (first boosts) contained 2 mg/ml immunogen A and 1 mg/ml immunogen B. Subsequent immunizations (boosts […]) contained 1 mg/ml of each immunogen. All boosts were emulsified in 50% (v/v) Freund's Incomplete Adjuvant (FIA) and administered to the appropriate sheep in the same manner as the 1° immunizations, at monthly intervals for 1 year. Blood sampling took place 7 to 14 days after each boost. Each sample was processed to produce antiserum which was further purified by caprylic acid and ammonium sulfate precipitation to yield an immunoglobulin G (IgG) fraction. The IgG fraction was evaluated by competitive ELISA microtiter plate assay, as described in Example 12 below.
(a) The wells of an enhanced binding 96-well polystyrene microtiter plate were coated with the IgG fraction of the antiserum raised to immunogen A (hapten A-BSA) (Example 7), diluted in 10 mM Tris, pH8.5 (125 μl/well). The appropriate antibody coating dilution was determined using standard ELISA chequerboard techniques. The plate was incubated for 2 hours at 37° C., washed 4 times with Tris-buffered saline containing Tween 20 (TBST) and tapped dry. […] 75 μl of conjugate A (hapten A-HRP) (Example 10), diluted in Tris buffer containing EDTA, D-mannitol, sucrose, thimerosal and BSA, was added to each of the wells. The appropriate dilution of conjugate was also determined using standard ELISA chequerboard techniques. The plate was incubated at 37° C. for 2 hours. The excess unbound conjugate was removed by washing 6 times over a 10 minute period with TBST. 125 μl of tetramethylbenzedine (TMB) substrate solution was added to each well of the plate that was then incubated for 15 to 20 minutes in the dark at room temperature. The reaction was terminated by addition of 125 μl 0.2M H2SO4 to each well. The absorbance was then measured at 450 nm using a microtiter plate reader.

[2] = test system: IgG fraction of the antiserum raised to immunogen B (hapten B-BSA); format: binding, sheep; details: for IC50: standard concentration which produces 50% B/B0; for IC50, OP: concentration of test opiate that causes 50% displacement of signal, Table 3, Example 13 (b)
[3] = percentage cross-reactivity based on specificity to oxycodone, Table 1
[4] = standard concentration 0.5 ng/ml
[5] = standard concentration 25 ng/ml
[6] = standard concentration 100 ng/ml
[7] = standard concentration 250 ng/ml
[8] = standard concentration 500 ng/ml
[9] = percentage cross-reactivity based on specificity to oxycodone, Table 2
[10] = standard concentration 10 ng/ml
[11] = standard concentration 50 ng/ml
[12] = standard concentration 1000 ng/ml
[13] = standard concentration 2000 ng/ml

| Structure (SMILES) | % CR [1, 3] | % B/B0 [1, 4] | % B/B0 ([1]; standard concentration 1 ng/ml) | % B/B0 [1, 5] | % B/B0 [1, 6] | % B/B0 [1, 7] | % B/B0 [1, 8] | IC50 ([1]; Table 1) | % CR [2, 9] | % B/B0 [2, 10] | % B/B0 [2, 11] | % B/B0 [2, 6] | % B/B0 [2, 8] | % B/B0 [2, 12] | % B/B0 [2, 13] | % CR [1] | IC50, OP [1] | % CR [2] | IC50, OP [2] | other results |
| --- | --- | --- | --- | --- | --- | --- | --- | --- | --- | --- | --- | --- | --- | --- | --- | --- | --- | --- | --- | --- |
| COc1ccc2c3c1O[C@H]1C(=O)CC[C@@]4(O)[C@@H](C2)NCC[C@]314 [Noroxycodone] | <1.7% | 99.3% | 100.2% | 99.3% | 97.7% | 96.1% | 92.8% | >500.0 ng/mL | 23.4% | 90.7% | 70.9% | 65.0% | 43.7% | 32.5% | 24.4% | – | – | – | – | % B/B0 ([1]; standard concentration 5 ng/ml): 100.3%; % B/B0 [2, 7]: 52.0%; IC50 ([2]; Table 2): 233.5 ng/mL (≈ 0.775 µM) |
| COc1ccc2c3c1O[C@H]1[C@@H](O)CC[C@H]4[C@@H](C2)N(C)CC[C@@]341 [Dihydrocodone] | – | – | – | – | – | – | – | – | – | – | – | – | – | – | – | <1.7% | >500 ng/mL | <2.7% | >2000 ng/mL | – |
| CN1CC[C@]23c4c5ccc(O)c4O[C@H]2[C@@H](O)C=C[C@H]3[C@H]1C5 [Morphine] | – | – | – | – | – | – | – | – | – | – | – | – | – | – | – | <1.7% | – | <2.7% | – | – |
| COc1ccc2c3c1O[C@H]1[C@@H](O)C=C[C@H]4[C@@H](C2)N(C)CC[C@@]341 [Codeine] | – | – | – | – | – | – | – | – | – | – | – | – | – | – | – | 2.2% | 386.7 ng/mL (≈ 1.29 µM) | <2.7% | >2000 ng/mL | – |
| COc1ccc2c3c1O[C@H]1C(=O)CC[C@@]4(O)[C@@H](C2)N(C)CC[C@]314 [Oxycodone] | 100.0% | 88.6% | 82.2% | 36.1% | 22.2% | 14.8% | 10.1% | 8.7 ng/mL (≈ 0.0276 µM) | 100.0% | 75.7% | 50.1% | 41.9% | 17.8% | 12.2% | 8.3% | – | – | – | – | – |
| CN1CC[C@]23c4c5ccc(O[C@@H]6O[C@H](C(=O)O)[C@@H](O)[C@H](O)[C@H]6O)c4O[C@H]2[C@@H](O)C=C[C@H]3[C@H]1C5 [Morphine-3-glucuronide] | – | – | – | – | – | – | – | – | – | – | – | – | – | – | – | <1.7% | >500 ng/mL | <2.7% | >2000 ng/mL | – |
| COC1=CC=C2[C@H]3Cc4ccc(OC)c5c4[C@@]2(CCN3C)[C@H]1O5 [Thebaine] | – | – | – | – | – | – | – | – | – | – | – | – | – | – | – | 4.3% | 203.2 ng/mL (≈ 0.653 µM) | <2.7% | >2000 ng/mL | – |
| CN1CC[C@]23c4c5ccc(O)c4O[C@H]2C(=O)CC[C@@]3(O)[C@H]1C5 [Oxymorphone] | 26.5% | 93.0% | 90.5% | 57.1% | 39.2% | 29.2% | 24.4% | 32.8 ng/mL (≈ 0.109 µM) | <2.7% | 103.8% | 97.3% | 95.0% | 90.1% | 84.2% | 76.7% | – | – | – | – | % B/B0 ([1]; standard concentration 5 ng/ml): 75.1%; % B/B0 [2, 7]: 93.5%; IC50 ([2]; Table 2): >2000.0 ng/mL |
| COc1ccc2c3c1O[C@H]1C(=O)CC[C@H]4[C@@H](C2)N(C)CC[C@]314 [Hydrocodone] | – | – | – | – | – | – | – | – | – | – | – | – | – | – | – | <1.7% | >500 ng/mL | 75.6% | 72.4 ng/mL (≈ 0.242 µM) | – |
